Data published in article PMC5382548 (Scientific Reports, 2015).

What was measured:
[1] = test system: SW620 metastatic colon cancer cells; assay: Guava ViaCount assay, SW620; format: cell-based, human; details: IC65 concentration, 72 h
Description: The ability of IQcs to induce cell death in colon cancer cell lines with different genotypes (HCT116 and SW620) and in the non-malignant cell line HEK293T was studied by a Guava Via Count assay and compared with the behaviour of 5-FU and TMPyP4 at equitoxic concentrations (IC50 and IC65). Results in Figure 7 show dose-dependent induction of cell death, mainly by apoptosis, by all tested compounds in the HCT116 colon cancer cell line. […] In SW620 metastatic colon cancer cells, cell death induction was highly dependent on the number and position of side chains in IQc compounds. […]
Figure 7 Evaluation of the effect of IQc on cell viability using the ViaCount assay. […] Results are expressed as the mean percentage (%) of viable (white), mid-apoptotic (grey) and dead (black) cells ± SEM, of at least three different experiments, for (a) IC50, and for (b) IC65 compound concentrations. a, p < 0.05; b, p < 0.01 from DMSO (vehicle control); c, p < 0.05; and d, p < 0.01 from 5-FU. […]
Taqman Real-time PCR reactions were performed using 1.5 µg of total RNA, using High Capacity RNA to cDNA kit, according to the manufacturer`s instruction. […] The comparative threshold cycle method was used to calculate the amplification factor, where the threshold cycle (Ct) is defined as the cycle number at which the fluorescence passes the fixed threshold intensity level. […]

[2] = test system: KRAS mRNA in Panc-1 cells; parameters: method as in PMID 18490377; details: 12 or 24 hours, 50 μM; cited from earlier work
[3] = test system: HT21 (DNA, G4) GGGTTAGGGTAGGGTTAGGG; assay: circular dichroism; details: 60 mM K+; K-cacodylate pH 7.4, 25 °C; hybrid G4 changes to antiparallel

| Compound | Cell death induced, SW620 [1] [%] | Decrease in KRAS mRNA levels [2] [%] | binding [3] |
| --- | --- | --- | --- |
| C[n+]1ccc(-c2c3nc(c(-c4cc[n+](C)cc4)c4ccc([nH]4)c(-c4cc[n+](C)cc4)c4ccc([nH]4)c(-c4cc[n+](C)cc4)c4nc2C=C4)C=C3)cc1 [TMPyP4, reference compound] | > 20 | ~30 |  |
| CCN(CC)CCCNc1ccc2c(c1)[nH]c1c2c[n+](C)c2ccc(NCCCN(CC)CC)cc12.[Cl-] [3e] |  |  | yes |
